This note sets out measurements from paper PMC11245519, “Ubiquitous purine sensor modulates diverse signal transduction pathways in bacteria” (Nature Communications, 2024).

One assay addresses R1 (WP_219614703-LBD) (Aeromonas salmonicida, UniProt T0PLV6). Format: binding. The following applies: change in Tm, threshold 2 °C.
A further assay concerns R13 (WP_167859577-LBD). Format: binding, Paenibacillus cymbidii. The following applies: change in Tm, threshold 2 °C; 2 mM ligand (Supplementary Fig. 7).
The target in a further assay is R14 (WP_021170906-LBD) (Sporomusa ovata, UniProt A0A0U1L1T7). The assay is described as follows: Thermal shift assay of the R14 LBD. The following applies: change in Tm, threshold 2 °C. Format: binding.
For the next assay, the target named is R6 (WP_185834821-LBD) (Vibrio cholerae, UniProt Q9KPY8). The assay is described as follows: Thermal shift assay of the R6 LBD. Format: binding. The following applies: change in Tm, threshold 2 °C.
In the next assay the test system is R5 (WP_131005693-LBD). Briefly: Microcalorimetric titration (ITC) of the R5 LBD with ligands. Format: binding, Clostridioides difficile. To be noted: 25 °C, pH 7.0.
For a further assay, the system named is R4 (WP_199478134-LBD). Briefly: Thermal shift assay of the R4 LBD. Format: binding, Marinomonas spartinae. The following applies: change in Tm, threshold 2 °C.
Another assay deals with R11 (WP_162024566-LBD). The assay is described as follows: Microcalorimetric titration (ITC) of the R11 LBD with ligands. Format: binding, Lentimonas sp. CC4. To be noted: 25 °C, pH 7.0.
In another assay the target is R15 (WP_207952809-LBD) (Paenibacillus agricola, UniProt A0ABX0IZG8). The assay is described as follows: Microcalorimetric titration (ITC) of the R15 LBD with ligands. Format: binding, Paenibacillus sp. S3N08. The following applies: 25 °C, pH 7.0.
The test system of another assay is R10 (WP_110129388-LBD). Format: binding, Coraliomargarita sinensis. The following applies: change in Tm, threshold 2 °C; cells left empty in Table 3.

Sequence of R15 (WP_207952809-LBD) (A0ABX0IZG8 entry or part of it): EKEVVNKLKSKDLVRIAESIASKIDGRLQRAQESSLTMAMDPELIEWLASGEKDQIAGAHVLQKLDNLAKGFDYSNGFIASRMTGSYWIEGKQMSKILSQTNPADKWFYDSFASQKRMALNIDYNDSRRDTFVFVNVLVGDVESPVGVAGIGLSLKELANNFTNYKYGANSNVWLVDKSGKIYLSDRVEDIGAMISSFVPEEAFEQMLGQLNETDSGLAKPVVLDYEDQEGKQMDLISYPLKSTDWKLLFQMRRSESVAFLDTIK
Sequence of R14 (WP_021170906-LBD) (A0A0U1L1T7 entry or part of it): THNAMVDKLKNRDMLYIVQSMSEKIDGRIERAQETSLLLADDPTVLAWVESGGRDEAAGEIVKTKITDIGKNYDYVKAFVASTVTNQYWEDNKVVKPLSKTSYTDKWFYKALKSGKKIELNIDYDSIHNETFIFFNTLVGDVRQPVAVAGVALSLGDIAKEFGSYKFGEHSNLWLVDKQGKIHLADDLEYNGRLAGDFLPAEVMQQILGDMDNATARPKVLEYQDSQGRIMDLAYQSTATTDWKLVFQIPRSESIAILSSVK

For the molecule `O=c1[nH]c(=O)c2[nH]c(=O)[nH]c2[nH]1` [Uric acid], the “Binding in thermal shift assay, R1” value at R1 (WP_219614703-LBD) was “Nts^b (no binding observed in thermal shift assays, i.e., compounds caused changes in the midpoint of protein unfolding (Tm) of less than 2 °C)”. Further, the “Binding in thermal shift assay, R13” value in the assay on R13 (WP_167859577-LBD) was “Nts^b (no binding observed in thermal shift assays, i.e., compounds caused changes in the midpoint of protein unfolding (Tm) of less than 2 °C)”. The “Binding in thermal shift assay, R14” value at R14 (WP_021170906-LBD) was “Nts^b (no binding observed in thermal shift assays, i.e., compounds caused changes in the midpoint of protein unfolding (Tm) of less than 2 °C)”. Moreover, the “Binding in thermal shift assay, R6” value at R6 (WP_185834821-LBD) is “Nts^b (no binding observed in thermal shift assays, i.e., compounds caused changes in the midpoint of protein unfolding (Tm) of less than 2 °C)”. In addition, the “Binding in microcalorimetric titration, R5” value in the assay on R5 (WP_131005693-LBD) is given as “Nb^a”. Moreover, the “Binding in thermal shift assay, R4” value in the assay on R4 (WP_199478134-LBD) was “Nts^b (no binding observed in thermal shift assays, i.e., compounds caused changes in the midpoint of protein unfolding (Tm) of less than 2 °C)”. Besides, in the assay on R11 (WP_162024566-LBD), the “Binding in microcalorimetric titration, R11” value was “Nb^a”. Also, on R15 (WP_207952809-LBD), the “Binding in microcalorimetric titration, R15” value is listed as “Nb^a”. Besides, the “Binding in thermal shift assay, R10 (Supplementary Table 3)” value in the assay on R10 (WP_110129388-LBD) is “Nts (No binding observed in thermal shift assays, i.e. compounds caused changes in the midpoint of protein unfolding (Tm) of less than 2 ºC)”.
